# Experimental data: patent publication US20230321066A1, “PREVENTATIVE TREATMENT OF MIGRAINE” (priority 2020, published 2023)
# Experiments:
# [1] = tested on: episodic and chronic migraine patients; conditions: human, in vivo, 12 weeks
# [2] = tested on: episodic and chronic migraine patients; assay: BHV3000-305 Phase 2/3 randomized, double-blind, placebo-controlled study of rimegepant in migraine prevention: efficacy; type: in vivo, human
# Procedure: Clinical Trial—BHV3000-305: A Phase 2/3, Randomized, Double-blind, Placebo-controlled Study to Evaluate the Efficacy and Safety of Rimegepant in Migraine Prevention (ClinicalTrials.gov Identifier: NCT03732638).
# A phase 2/3 clinical study was conducted with 1629 participants, as follows.
# The purpose of this is study is to compare the efficacy of BHV-3000 (rimegepant) to placebo as a preventive treatment for migraine, as measured by the reduction in the number of migraine days per month.
# • Study Type: Interventional (Clinical Trial) • Actual Enrollment: 1629 participants • Allocation: Randomized • Intervention Model: Parallel Assignment • Masking: Triple (Participant, Care Provider, Investigator) • Primary Purpose: Prevention • Official Title: A Phase 2/3, Randomized, Double-blind, Placebo-controlled Study to Evaluate the Efficacy and Safety of Rimegepant in Migraine Prevention • Actual Study Start Date: Nov. 14, 2018 • Actual Primary Completion Date: Dec. 10, 2019
# Primary Outcome Measures: • 1. Change from baseline in mean number of migraine days per month [Time Frame: Mean number of migraine days per month as assessed over 3 months (12 weeks)] • Change from baseline in mean number of migraine days per month as measured over the 12-week double-blind phase of the study.
# Secondary Outcome Measures: • 1. Achievement of at least a 50% reduction from baseline in mean number of moderate to severe monthly migraine days. [Time Frame: baseline to end of Week 12] • Achievement of at least a 50% reduction from baseline in mean number of moderate to severe monthly migraine days over course of the double-blind treatment phase. • 2. The mean number of rescue medication days per month. [Time Frame: baseline to end of week 12 as measure per month] • The mean number of rescue medication days per month over the course of the double-blind, treatment phase. Rescue medications include the rescue medications defined in this protocol. • 3. Adverse events. [Time Frame: baseline to end of Week 12] • Adverse events that occur in at least 5% of treated subjects; the frequency of unique subjects with serious adverse events, adverse events leading to discontinuation and clinically significant laboratory abnormalities, as reported on case report forms. • 4. The frequency of AST or ALT elevations. [Time Frame: baseline to end of Week 12] • The frequency of AST or ALT elevations>3×ULN, concurrently with bilirubin elevations>2×ULN, will be assessed by tabulating the number of unique subjects with this pairing of events. • 5. The frequency of hepatic-related adverse events and hepatic-related treatment. [Time Frame: baseline to end of Week 12] • The frequency of hepatic-related adverse events and hepatic-related treatment discontinuations will be tabulated from case report forms and will be based on unique subjects reporting such events. • 6. The mean change from baseline in the MSQ role function [Time Frame: baseline to end of Week 12] • The mean change from baseline in the MSQ role function—restrictive domain score at Week 12 of the double-blind treatment phase. • 7. The mean change from baseline in the MIDAS total score. [Time Frame: baseline to end of Week 12] • The mean change from baseline in the MIDAS total score at Week 12 of the double-blind treatment phase.
# This pivotal study enrolled patients with both episodic and chronic migraine. The study evaluated the efficacy and safety of rimegepant 75 mg (n=370) dosed every other day for the preventive treatment of migraine in patients versus placebo (n=371) who had migraine for at least one year and 4 to 18 moderate to severe migraine attacks per month over three months prior to enrollment. During the one-month observation period, patients experienced on average 10.7 migraine days per month, with 7.4 migraine days of moderate to severe migraine during the same period.
# [3] = tested on: episodic and chronic migraine patients; assay: BHV3000-305 study: adverse events and liver safety on double-blind treatment
# [4] = 370 patients who received rimegepant 75 mg every other day
# [5] = Severity Mild, treated subjects N = 370
# [6] = Severity Moderate or Severe, treated subjects N = 370
# [7] = Severity Moderate, treated subjects N = 370
# [8] = Severity Total, treated subjects N = 370
compound,measurement,setting,value
"N[C@@H]1c2cccnc2[C@H](OC(=O)N2CCC(n3c(=O)[nH]c4ncccc43)CC2)CC[C@H]1c1cccc(F)c1F [Rimegepant, [(5S,6S,9R)-5-amino-6-(2,3-difluorophenyl)-6,7,8,9-tetrahydro-5H-cyclohepta[b]pyridin-9-yl] 4-(2-oxo-3H-imidazo[4,5-b]pyridin-1-yl)piperidine-1-carboxylate]",Pertussis,[1],0 n
same,reduction in mean number of migraine days as compared to placebo,"[2]; (4.9−3.7)/3.7*100, participants not taking concomitant preventive treatment",32%
same,"Change From OP in Mean Number of Total Migraine Days per Month in First Month, Least-squares mean, Difference (Rimegepant − Placebo)","[2]; Evaluable mITT subjects, P-value 0.0013",−0.9
same,"Change From OP in Mean Number of Total Migraine Days per Month Overall, Least-squares mean, Difference (Rimegepant − Placebo)","[2]; Evaluable mITT subjects, P-value 0.0094",−0.7
same,"Primary Endpoint: Change From OP in Mean Number of Total Migraine Days per Month in Last Month, Least-squares mean, Difference (Rimegepant − Placebo)","[2]; Evaluable mITT subjects, P-value 0.0176, significant in hierarchical testing",−0.8
same,"MSQoL Restrictive Role Function Domain Score Change From Baseline at Week 12, Least-squares mean, Difference (Rimegepant − Placebo)","[2]; Evaluable mITT subjects, P-value 0.0358",3.5
same,">=50% Reduction From OP in Mean Number of Moderate or Severe Migraine Days per Month in Last Month, Stratified Risk, Difference (Rimegepant − Placebo)","[2]; Evaluable mITT subjects, P-value 0.0734",5.7
same,"Rescue Medication Days per Month In Last Month, Least-squares mean, Difference (Rimegepant − Placebo)","[2]; Evaluable mITT subjects, P-value 0.3868",−0.2
same,"MIDAS Total Score Change From Baseline at Week 12, Least-squares mean, Difference (Rimegepant − Placebo)","[2]; Evaluable mITT subjects, P-value 0.9616",−0.1
same,ALT/AST elevations: relatedness to study drug as judged by independent liver monitoring panel,[3]; [4],did not determine any ALT/AST elevations to be in the categories of probably or definitely related to study drug
same,cases of ALT or AST>3×ULN and bilirubin>2×ULN,[3]; [4],no cases
same,Enterobiasis,[3]; [5],0 n
same,Folliculitis,[3]; [5],0 n
same,Oral candidiasis,[3]; [5],0 n
same,Orchitis,[3]; [5],0 n
same,Otitis media,[3]; [5],0 n
same,Acute sinusitis,[3]; [6],0 n
same,Appendicitis,[3]; [6],0 n
same,Bacterial vaginosis,[3]; [6],0 n
same,Herpes zoster,[3]; [6],0 n
same,Pharyngitis streptococcal,[3]; [6],0 n
same,Pneumonia,[3]; [6],0 n
same,Pyelonephritis,[3]; [6],0 n
same,Sepsis,[3]; [6],0 n
same,Acute sinusitis,[3]; [7],0 n
same,Appendicitis,[3]; [7],0 n
same,Bacterial vaginosis,[3]; [7],0 n
same,Herpes zoster,[3]; [7],0 n
same,Pharyngitis streptococcal,[3]; [7],0 n
same,Sepsis,[3]; [7],0 n
same,Acute sinusitis,[3]; [8],0 n
same,Appendicitis,[3]; [8],0 n
same,Enterobiasis,[3]; [8],0 n
same,Folliculitis,[3]; [8],0 n
same,Oral candidiasis,[3]; [8],0 n
same,Orchitis,[3]; [8],0 n
same,Otitis media,[3]; [8],0 n
same,Pelvic inflammatory disease,[3]; [8],0 n
same,Pharyngitis streptococcal,[3]; [8],0 n
same,Pneumonia,[3]; [8],0 n
same,Pyelonephritis,[3]; [8],0 n
same,Sepsis,[3]; [8],0 n
same,Tooth infection,[3]; [8],0 n
